Assay results taken from US4963553A, “4-[(substituted) alkylcarbonyl]-4,5-dihydro- and -4,5,6,7-tetrahydro-7-[(substituted)phenyl]pyrazolo[1,5-a]pyrimidines” (American Cyanamid Co., priority 1988, dated 1990).
Where a name gives a salt, the structure may show the parent alone.

tested on: Spontaneously Hypertensive Rats; assay: Hypotensive activity: mean arterial blood pressure in spontaneously hypertensive rats; assay type: in vivo, rat (Okamoto strain, male); conditions: SHR, gavage, 100 mg/kg or less, two doses 24 h apart, measured at 28 hours; average MABP of rats used 160±1.5 mm
Procedure: The novel compounds of the invention are active hypotensive agents at nontoxic doses when administered to mammals. These compounds were tested for hypotensive activity by the method of P. S. Chan and D. W. Poorvin, Clinical and Experimental Hypertension, (6), 817-830 (1979). Male, 16 week old, spontaneously hypertensive rats of the Okamoto strain (Taconic Farms, Germantown, N.Y.) having an average means arterial blood pressure of 160±1.5 mm of mercury are used in the test. A rat is dosed by gavage with a test compound, suspended in 2% pre-boiled starch at a concentration of 50 mg/ml, at a dose of 100 mg/kg of body weight or less, with 0.9% sodium chloride loading at a dose of 25 ml/kg of body weight. A second identical dose of the test compound, without sodium chloride loading is given 24 hours later. At 28 hours after the initial dose the mean arterial blood pressure is measured by the method of Chan and Poorvin vide supra.

Compound	MABP/mmHg (mean arterial blood pressure)
N#Cc1cnn2c1N(C(=O)CN1CCN(C(c3ccccc3)c3ccc(Cl)cc3)CC1)CC=C2c1cccc(C(F)(F)F)c1 (centres unmarked) [Example 21, 4-[[4-[(4-Chlorophenyl)phenylmethyl]-1-piperazinyl]acetyl]-4,5-dihydro-7-[3-(trifluoromethyl)phenyl]pyrazolo[1,5-a]pyrimidine-3-carbonitrile]	134 mmHg
N#Cc1cnn2c1N(C(=O)CN1CCN(c3ccccc3)CC1)CC=C2c1cccc(C(F)(F)F)c1 [Example 25, 4,5-Dihydro-4-[(4-phenyl-1-piperazinyl)acetyl]-7-[3-(trifluoromethyl)phenyl]pyrazolo[1,5-a]pyrimidine-3-carbonitrile]	137 mmHg
N#Cc1cnn2c1N(C(=O)CN1CCN(c3cccc(Cl)c3)CC1)CC=C2c1cccc(C(F)(F)F)c1 [Example 26, 4-[[4-(3-Chlorophenyl)-1-piperazinyl]acetyl]-4,5-dihydro-7-[3-(trifluoromethyl)phenyl]pyrazolo[1,5-a]pyrimidine-3-carbonitrile]	124 mmHg
N#Cc1cnn2c1N(C(=O)CN1CCN(c3ncccn3)CC1)CC=C2c1cccc(C(F)(F)F)c1 [Example 28, 4,5-Dihydro-4-[[4-(2-pyrimidinyl)-1-piperazinyl]acetyl]-7-[3-(trifluoromethyl)phenyl]pyrazolo[1,5-a]pyrimidine-3-carbonitrile]	127 mmHg
N#Cc1cnn2c1N(C(=O)CN1CCN(c3ccc(F)cc3)CC1)CC=C2c1cccc(C(F)(F)F)c1 [Example 31, 4-[[4-(4-Fluorophenyl)-1-piperazinyl]acetyl]-4,5-dihydro-7-[3-(trifluoromethyl)phenyl]pyrazolo[1,5-a]pyrimidine-3-carbonitrile]	130 mmHg
N#Cc1cnn2c1N(C(=O)CCN1CCN(Cc3ccc(Cl)cc3)CC1)CC=C2c1cccc(C(F)(F)F)c1 [Example 35, 4-[3-[4-[(Chlorophenyl)methyl]-1-piperazinyl]-1-oxopropyl]-4,5-dihydro-7-[3-(trifluoromethyl)phenyl]pyrazolo[1,5-a]pyrimidine-3-carbonitrile]	138 mmHg
N#Cc1cnn2c1N(C(=O)CN1CCN(C(c3ccc(F)cc3)c3ccc(F)cc3)CC1)CC=C2c1cccc(C(F)(F)F)c1 [Example 40, 4-[[4-[Bis(4-fluorophenyl)methyl]-1-piperazinyl]acetyl]-4,5-dihydro-7-[3-(trifluoromethyl)phenyl]pyrazolo[1,5-a]pyrimidine-3-carbonitrile]	121 mmHg
C=CCN1CCN(CC(=O)N2CC=C(c3cccc(C(F)(F)F)c3)n3ncc(C#N)c32)CC1 [Example 47, 4,5-Dihydro-4-[[4-(2-propenyl)-1-piperazinyl]acetyl]-7-[3-(trifluoromethyl)phenyl]pyrazolo[1,5-a]pyrimidine-3-carbonitrile]	139 mmHg
CC(C)N1CCN(CC(=O)N2CC=C(c3cccc(C(F)(F)F)c3)n3ncc(C#N)c32)CC1 [Example 51, 4,5-Dihydro-4-[[4-(1-methylethyl)-1-piperazinyl]acetyl]-7-[3-(trifluoromethyl)phenyl]pyrazolo[1,5-a]pyrimidine-3-carbonitrile]	139 mmHg
N#Cc1cnn2c1N(C(=O)CN1CCN(C3CCC3)CC1)CC=C2c1cccc(C(F)(F)F)c1 [Example 52, 4-[(4-Cyclobutyl-1-piperazinyl)acetyl]-4,5-dihydro-7-[3-(trifluoromethyl)phenyl)pyrazolo[1,5-a]pyrimidine-3-carbonitrile]	124 mmHg

same assay, conditions: SHR, gavage, 100 mg/kg or less, two doses 24 h apart, measured at 28 hours; average MABP of rats used 160±1.5 mm; dihydrochloride, 100 mg/kg

Compound	MABP/mmHg (mean arterial blood pressure)
N#Cc1cnn2c1N(C(=O)CN1CCN(Cc3ccccc3)CC1)CC=C2c1cccc(C(F)(F)F)c1 [Example 78, 4,5-Dihydro-4-[[4-(phenylmethyl)-1-piperazinyl]acetyl]-7-[3-(trifluoromethyl)phenyl]pyroazolo[1,5-a]pyrimidine-3-carbonitrile, dihydrochloride]	137 mmHg

tested on: mice (hypoxic environment); assay: Hypoxic survival test; assay type: in vivo, mouse (Royal Hart); conditions: 100 mg/kg, intraperitoneal, 10% oxygen, 5 minutes
Procedure: The hypoxic survival test is a useful in vivo test for measuring the effectiveness of central nervous system-acting drugs in enhancing survival in an hypoxic environment relative to the known parasympathomimetic agent physostigmine.
Drugs are tested by intraperitoneal injection of groups of mice 30 minutes prior to placing them in an hypoxic environment and measuring survival. The rationale of this test is that drugs which enhance survival under hypoxic conditions without concomitant depression or sedative side effects, do so by enhancing brain metabolism, i.e., by improving energy supply relative to demand and so preserving normal brain function under conditions of reduced energy metabolism. Considering the dependence of the brain on a constant supply of energy, drugs which have this property may have many far-reaching therapeutic indications, including aiding recovery from stroke and closed head injury and reducing the deleterious effects of age-related central nervous system deficits.
In the hypoxic survival test, groups of 20 Royal Hart mice (6 weeks of age) were injected intraperitoneally with a test compound in saline at various doses ranging from 1 to 200 mg/kg, 30 minutes prior to placing them in an hypoxic mixture (10% oxygen, 90% […]) and measuring survival after 5 minutes.
A control group of 20 mice was injected intraperitoneally with saline (0.01 ml/g of body weight) and processed as described above.
Another group of 20 mice was injected intraperitoneally with 0.125 mg/kg of physostigmine in saline and processed as described above.

Compound	% Survivors
COc1ccc(C(=O)N2CCN(CC(=O)N3CC=C(c4cccc(C(F)(F)F)c4)n4ncc(C#N)c43)CC2)cc1.Cl [Example 163, 4,5-Dihydro-4-[[4-(4-methoxybenzoyl)-1-piperazinyl]acetyl]-7-[3-(trifluoromethyl)phenyl]pyrazolo[1,5-a]pyrimidine-3-carbonitrile, monohydrochloride]	25%

same assay, conditions: 10% oxygen, after 5 minutes; physostigmine group 0.125 mg/kg intraperitoneal

Compound	mice surviving (physostigmine-treated)
CNC(=O)Oc1ccc2c(c1)[C@]1(C)CCN(C)[C@@H]1N2C [physostigimine, reference compound]	60-80%

same assay, conditions: Mus musculus, ip, 5 min, 100 mg/kg, intraperitoneal, 10% oxygen, 5 minutes; read-out: % Survivors

Compound	responders at 100 mg/kg
O=C(CN1CCN(Cc2ccccc2)CC1)N1CC=C(c2cccc(C(F)(F)F)c2)n2ncc(Cl)c21 [Example 155, 3-Chloro-4,5-dihydro-4-[[4-(phenylmethyl-1-piperazinyl]acetyl]-7-[3-trifluoromethyl)phenylpyrazolo[1,5-a]pyrimidine, dihydrochloride]	25%
N#Cc1cnn2c1N(C(=O)CN1CCN(Cc3ccccc3F)CC1)CC=C2c1cccc(C(F)(F)F)c1 [Example 156, 4-[[4-[(2-Fluorophenyl)methyl]-1-piperazinyl]acetyl]4,5-dihydro-7-[3-(trifluoromethyl)phenyl]pyrazolo[1,5-a]pyrimidine-3-carbonitrile]	55%
CC1=C(c2cccc(Cl)c2)n2ncc(C#N)c2N(C(=O)CN2CCN(Cc3ccccc3F)CC2)C1 [Example 157, 7-(3-Chlorophenyl)-4-[[4-[(2-fluorophenyl)methyl]-1-piperazinyl]acetyl]-4,5-dihydro-6-methylpyrazolo[1,5-a]pyrimidine-3-carbonitrile, dihydrochloride]	45%
N#Cc1cnn2c1N(C(=O)CN1CCN(C(=O)OCc3ccccc3)CC1)CC=C2c1cccc(C(F)(F)F)c1 [Example 158, 4-[2-[3-Cyano-7-[3-(trifluoromethyl)phenyl]pyrazolo[1,5-a]pyrimidin-4(5H)-yl]-2-oxoethyl]-1-piperazinecarboxylic acid, phenylmethyl ester]	55%
CC1=C(c2cccc(C(F)(F)F)c2)n2ncc(C#N)c2N(C(=O)CN2CCN(Cc3cccc(C(F)(F)F)c3)CC2)C1 [Example 160, 4,5-Dihydro-6-methyl-7-[3-(trifluoromethyl)phenyl]-4-[[4-[[3-(trifluoromethyl)phenyl]methyl]-1-piperazinyl]acetyl]pyrazolo[1,5-a]pyrimidine-3-dihydrochloride]	40%
CCC1=C(c2cccc(C(F)(F)F)c2)n2ncc(C#N)c2N(C(=O)CN2CCN(Cc3ccccc3)CC2)C1 [Example 161, 4,5-Dihydro-6-ethyl-4-[[4-(phenylmethyl)-1-piperazinyl]acetyl]-7-[3-(trifluoromethyl)phenyl]pyrazolo[1,5-a]pyrimidine-3-carbonitrile]	25%
COc1ccc(C(=O)N2CCN(CC(=O)N3CC=C(c4cccc(C(F)(F)F)c4)n4ncc(C#N)c43)CC2)cc1 [Example 162, 4,5-Dihydro-4-[[4-(4-methoxybenzoyl)-1-piperazinyl]acetyl]-7-[3-(trifluoromethyl)phenyl]pyrazolo[1,5-a]pyrimidine-3-carbonitrile]	45%
